Experimental data taken from ChEMBL document CHEMBL1131786, “Synthesis of probes for the active site of leucine dehydrogenase” (Bioorg Med Chem Lett, 1999).

Key:
Bacillus = assay: Compound was evaluated for the inhibition of Leucine dehydrogenase of Bacillus species; details: concentration not given here
Sporosarcina = assay: Compound was evaluated for the inhibition of Phenylalanine dehydrogenase of Sporosarcina species; details: concentration not given here

SMILES	inhibition (Bacillus)	inhibition (Sporosarcina)
COCO[C@H](C)C(=O)C(=O)O	8%	–
C[C@@H](O)[C@H](N)C(=O)O	–	61%
COCO[C@@H](C)C(=O)C(=O)O	93%	–
C[C@H](O)[C@H](N)C(=O)O	–	53%
